Reference: US20130252988A1, “COMPOSITIONS AND METHODS FOR TREATING MYELOFIBROSIS” (TARGEGEN, INC., priority 2010, published 2013)
Entries after “also recorded” stand apart in the source; their conditions may differ. Structures can show the parent of a compound that is named as a salt.

Legend:
[1] = tested on: subjects with myelofibrosis (constitutional symptoms); experiment: Constitutional symptoms rated by subjects (early satiety, fatigue, night sweats, cough, pruritus); assay type: in vivo
Description: The data here reflected changes from symptoms present at baseline. […] Severity was rated by subjects on a scale of 1-10: 0=absent; 1-3=mild; 4-7=moderate; 8-10=severe. Improved=downgrade to absent or to mild or moderate from more severe rating at baseline.
Symptoms were categorized as “absent” (score=0), “mild” (score=1-3). “moderate” (score=4-7), or “severe” (score=8-10).

[2] = tested on: IL-6, IL-8, IL-2 and TNF-a; experiment: Cytokine levels, multiplexed sandwich ELISAs; assay type: in vivo, human
Experimental: Samples for cytokine measurement were collected at baseline and every 4 weeks thereafter. Cytokine levels were measured using multiplexed sandwich ELISAs (Millipore, St. Charles, Mo.).

[3] = Body weight during study treatment; assay type: in vivo, human
platelet count = experiment: Thrombocytosis: platelet count; assay type: in vivo, human; settings: for Subjects who achieved a normal platelet count: after 6 cycles; for Subjects with a normal platelet count: following 12 cycles
JAK2V617F allele burden = JAK2V617F allele burden in the granulocyte fraction of peripheral blood; assay type: in vivo, human
Experimental: (§1) Responses were measured every 4 weeks per International Working Group for MPN Research and Treatment (IWG-MRT) criteria (Tefferi A et al., Blood 108:1497-1503, 2006). Assessment of bone marrow histology was performed at baseline and every 24 weeks of therapy. Changes in JAK2V617F allele burden in the granulocyte fraction of peripheral blood were measured as previously described (Kittur J et al., Cancer 109:2279-2284, 2007); the assessments were at baseline and every 4 weeks during the first 6 cycles, and every 6th cycle of therapy in the extension study.

[4] = tested on: subjects with myelofibrosis (palpable splenomegaly); experiment: Palpable spleen size / splenomegaly response (IWG-MRT criteria); assay type: in vivo, human; parameters: Clinical improvement (IWG response), subjects by 20 weeks: reference not given here
Experimental: as §1

[5] = MTD cohort, after 1 cycle (n=12)
[6] = MTD cohort, after 1 cycle, 8 subjects at baseline
[7] = MTD cohort, after 6 cycles (n=16)
[8] = 680 mg/day starting dose (N=37)
[9] = MTD cohort, subjects who completed 6 cycles

## Cc1cnc(Nc2ccc(OCCN3CCCC3)cc2)nc1Nc1cccc(S(=O)(=O)NC(C)(C)C)c1 [TG101348, N-tert-butyl-3-[(5-methyl-2-{[4-(2-pyrrolidin-1-ylethoxy)phenyl]amino}pyrimidin-4-yl)amino]benzenesulfonamide dihydrochloride monohydrate]
[1]; FIG. 4
  Subjects who reported new onset of =1 symptom during the study: 18 subjects
[1]; MTD cohort, after 1 cycle
  Night sweats: subjects with complete resolution: 64%
[1]; [5]
  Cough: subjects reporting improvement: 75%
  Cough: subjects with complete resolution: 67%
[1]; [6]
  Pruritus: subjects with complete resolution: 50%
  Pruritus: subjects with improvement: 75%
[1]; MTD cohort, after 2 cycles (n=27)
  Early satiety: subjects with complete resolution: 56%
[1]; MTD cohort, after 6 cycles (n=9)
  Night sweats: subjects with complete resolution: 89%
[1]; [7]
  Fatigue: subjects reporting improvement: 63%
  Fatigue: subjects with complete resolution: 25%
[1]; early satiety, fatigue, cough, pruritus, night sweats, baseline versus last visit, dihydrochloride monohydrate
  Effect on MF-associated constitutional symptoms: clinically significant benefit or resolution of constitutional symptoms; also recorded: able to improve the MF-associated constitutional symptoms; also recorded: remarkable activity against MF-associated constitutional symptoms, pruritus and cachexia
[1]; of the 18 with new onset, FIG. 4
  Subjects with new-onset symptoms resolved by last follow-up visit: 12 subjects
[1]; subject with JAK2V617F-positive PMF, started at 680 mg/day
  Pruritus in one subject: complete resolution of pruritus
[2]; after treatment initiation, data not shown
  Serum EPO and TPO levels relative to baseline: increases in serum EPO and to a lesser extent TPO levels
[2]; cycle 6, 1 subject (101-039)
  Absolute difference in IL-2 from baseline: -1827 pg/mL
  Absolute difference in IL-6 from baseline: -4719 pg/mL
[2]; relative to baseline during treatment, dihydrochloride monohydrate
  Effect on levels of pro-inflammatory cytokines (IL-6, IL-2, IL-8, TNF-a): no significant changes on cytokine levels; also recorded: minimal effect on serum levels of proinflammatory cytokines; also recorded: no consistent changes
[3]; 6 Cycles, MTD Cohort (n = 28)
  Weight, change from baseline, median: 0.6 kg
  Weight, median: 77.7 kg
[3]; 6 Cycles, Overall (n = 43)
  Weight, change from baseline, median: 0.4 kg
  Weight, median: 76.9 kg
[3]; 12 Cycles, MTD Cohort (n = 26)
  Weight, change from baseline, median: 0.35 kg
  Weight, median: 76.5 kg
[3]; 12 Cycles, Overall (n = 36)
  Weight, change from baseline, median: 0.7 kg
  Weight, median: 76.1 kg
[3]; end of 6 and 12 cycles, overall and MTD cohorts
  Median body weight relative to baseline: stable relative to baseline
Platelet count; MTD cohort (7 with baseline thrombocytosis)
  Subjects who achieved a normal platelet count: 100%
Platelet count; across doses (10 with baseline thrombocytosis)
  Subjects who achieved a normal platelet count: 90%
Platelet count; baseline platelet count >450×10^9/L
  Effect on platelet counts in thrombocytosis: able to reduce platelet counts
Platelet count; MTD cohort, all of 6
  Subjects with a normal platelet count: 6 subjects
Platelet count; across doses (7 of 8)
  Subjects with a normal platelet count: 88%
JAK2V617F allele burden; 12 cycles, 100% allele burden at baseline
  Subjects exhibiting no change in allele burden: 2
JAK2V617F allele burden; 23 subjects with baseline >20% (baseline median 60%), after 6 cycles, range 4%-100%
  Median JAK2V617F allele burden: 31%
JAK2V617F allele burden; 23 subjects with baseline >20% (baseline median 60%), after 12 cycles, range 7%-100%
  Median JAK2V617F allele burden: 32%
JAK2V617F allele burden; 48 evaluable VF-positive patients (21 patients), last available follow-up
  Patients with =50% reduction in VF allele burden: 44%
JAK2V617F allele burden; 48 evaluable VF-positive patients, last available follow-up
  Median decrease in granulocyte mutant allele burden: 48%
JAK2V617F allele burden; all mutation-positive subjects (baseline median 20%), after 6 cycles, range 0%-100%
  Median JAK2V617F allele burden: 17%
JAK2V617F allele burden; all mutation-positive subjects (baseline median 20%), after 12 cycles, range 0%-100%
  Median JAK2V617F allele burden: 19%
JAK2V617F allele burden; all mutation-positive subjects (n=51), after 6 cycles (p=0.04) and 12 cycles (p=0.01)
  Change in JAK2V617F allele burden versus pre-study baseline: significant decrease
JAK2V617F allele burden; baseline >20%, 12 cycles, 7 subjects
  Subjects with =50% decrease in JAK2V617F: 39%
JAK2V617F allele burden; baseline >20%, 12 cycles, Three subjects (7%, 18%, and 22%)
  Subjects exhibiting an increase in allele burden: 17%
JAK2V617F allele burden; baseline >20%, 18 subjects who completed 12 cycles, range 29% to 82%
  Median decrease in JAK2V617F allele burden: 50%
JAK2V617F allele burden; baseline >20%, after 6 cycles, 4 subjects (18%, 21%, 30%, and 58%)
  Subjects exhibiting an increase in JAK2V617F allele burden: 20%
JAK2V617F allele burden; baseline >20%, after 6 cycles, 9 subjects
  Subjects with =50% decrease in JAK2V617F allele burden: 45%
JAK2V617F allele burden; baseline >20%, after 6 cycles, 16 of 20 subjects
  Subjects exhibiting a decrease in JAK2V617F allele burden: 80%
JAK2V617F allele burden; baseline >20%, after 6 cycles, 16 subjects, range 6% to 96%
  Median decrease in JAK2V617F allele burden: 61%
JAK2V617F allele burden; group who started treatment at =680 mg
  Patients with =50% reduction in VF allele burden: 48%
JAK2V617F allele burden; subgroup with baseline allele burden >20% (n=23), after 6 cycles (p=0.002) and 12 cycles (p=0.002), dihydrochloride monohydrate
  Change in JAK2V617F allele burden versus pre-study baseline: significant and even more pronounced decrease; also recorded: significant decrease
JAK2V617F allele burden; subjects with baseline >20% (N=22), FIG. 6
  Subjects with decreased JAK2 V617F allele burden: 59%
[4]; [8]
  Clinical improvement (IWG response), subjects by 12 weeks: 56%
  Clinical improvement (IWG response), subjects by 20 weeks: 100%
  Subjects who achieved clinical improvement based on reduction of palpable splenomegaly (IWG response): 49%
[4]; Example 2 conclusions
  Complete response of splenomegaly: ~30%
  Proportion achieving =50% reduction in palpable splenomegaly: two-thirds
[4]; MTD cohort
  Mean (standard deviation) duration of spleen response per IWG-MRT criteria: 288 (±76) days
[4]; MTD cohort, range 41-170
  Median time to CI: 113 days
[4]; [9]
  Subjects in whom the spleen became non palpable: 31%
  Subjects with =25% reduction in palpable spleen size: 90%
  Subjects with =50% reduction in palpable spleen size: 66%
